We go through eight molecules from ChEMBL document CHEMBL1944572, “High-affinity fluorescent ligands for the 5-HT(3) receptor” (Bioorg Med Chem Lett, 2012).

Common to all, as to type: cell-based
For test [1], the target named is T1, 5-hydroxytryptamine receptor 3A (Homo sapiens) (UniProt P46098).
T1 sequence (whole entry): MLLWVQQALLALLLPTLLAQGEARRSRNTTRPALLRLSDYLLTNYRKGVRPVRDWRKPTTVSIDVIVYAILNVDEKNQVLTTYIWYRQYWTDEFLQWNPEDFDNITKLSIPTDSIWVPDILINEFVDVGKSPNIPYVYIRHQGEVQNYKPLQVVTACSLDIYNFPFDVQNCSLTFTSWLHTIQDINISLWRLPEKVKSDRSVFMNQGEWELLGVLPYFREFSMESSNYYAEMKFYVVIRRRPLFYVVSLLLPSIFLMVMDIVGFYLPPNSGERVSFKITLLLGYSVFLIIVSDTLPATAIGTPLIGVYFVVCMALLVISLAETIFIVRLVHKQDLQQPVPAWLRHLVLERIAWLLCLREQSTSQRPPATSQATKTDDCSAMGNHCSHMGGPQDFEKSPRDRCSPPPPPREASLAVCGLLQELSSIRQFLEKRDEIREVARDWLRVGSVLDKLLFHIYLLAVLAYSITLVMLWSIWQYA
Briefly: Binding affinity to human 5HT3A expressed in COS7 cells at 100 nM after 1 hr by fluorescence microscopy. Particulars: COS-7.

Test [2] deals with T1, 5-hydroxytryptamine receptor 3A (Homo sapiens). The test can be described thus: Binding affinity to human 5HT3A expressed in COS7 cells at 100 nM after 1 hr by fluorescence microscopy in presence of 10 uM ondansetron. The conditions noted are these: COS-7.
In test [3] the target is T2, 5-hydroxytryptamine receptor 3A (Homo sapiens, UniProt P46098).
T2 sequence (P46098 whole entry): T1 sequence (whole entry)
Briefly: Displacement of [3H]granisetron from human 5HT3A expressed in HEK293 cells after 1 hr by scintillation counting.

Activity calls are given as the source filed them. The rule behind the calls is not given here.

With `CN1[C@@H]2CCC[C@H]1C[C@H](NC(=O)c1nn(CCCNc3ccc([N+](=O)[O-])c4nonc34)c3ccccc13)C2`, the outcome in test [1] was inactive.

On to `CCN(CC)c1ccc2cc(C(=O)NCCOc3cccc4c(C(=O)N[C@@H]5C[C@H]6CCC[C@@H](C5)N6C)nn(C)c34)c(=O)oc2c1`, for which, in test [1], the outcome was inactive. On to `CC1=CC(C)=[N+]2C1=C(CCCOC(=O)CCCn1nc(C(=O)N[C@@H]3C[C@H]4CCC[C@@H](C3)N4C)c3ccccc31)c1c(C)cc(C)n1[B-]2(F)F`, for which the outcome in test [1] and in test [2] was Active. Take `CN1[C@@H]2CCC[C@H]1C[C@H](NC(=O)c1nn(CCCCNc3ccc([N+](=O)[O-])c4nonc34)c3ccccc13)C2`: the Ki entry in test [3] was “Not Active”. With `CN1[C@@H]2CCC[C@H]1C[C@H](NC(=O)c1nn(CCCCNC(=S)Nc3ccc(-c4c5ccc(=O)cc-5oc5cc(O)ccc45)c(C(=O)O)c3)c3ccccc13)C2`, in test [1], the outcome was Active. Besides, the result in test [2] was inactive.

In the case of `CCN(CC)c1ccc2cc(C(=O)NCCCCn3nc(C(=O)N[C@@H]4C[C@H]5CCC[C@@H](C4)N5C)c4ccccc43)c(=O)oc2c1`, in test [1], the outcome was inactive.

For `CN(C)c1cccc2c(S(=O)(=O)NCCCn3nc(C(=O)N[C@H]4C[C@H]5CCC[C@@H](C4)N5C)c4ccccc43)cccc12`, in test [1], the outcome was inactive. For `CN1[C@@H]2CCC[C@H]1C[C@H](NC(=O)c1nn(CCCNC(=S)Nc3ccc(-c4c5ccc(=O)cc-5oc5cc(O)ccc45)c(C(=O)O)c3)c3ccccc13)C2`, the result in test [1] was Active. For the same molecule, the result in test [2] was inactive.
